In patent publication US8952169B2 (Genentech, Inc., priority 2012, dated 2015):

Columns and labels:
hNav1.7 [1] = biological target: T1, hNav1.7 (Homo sapiens (Human), UniProt Q15858); assay: Patch voltage clamp electrophysiology (PatchXpress), HEK-293 cells, inactivated state block; format: cell-based; settings: HEK-293 cells, β1 coexpressed; inactivated state, holding −60 mV; read-out: EP_PX 293 hNav1.7 (IC50)
hNav1.7 [2] = biological target: T1, hNav1.7; assay: Tritiated aryl sulfonamide binding to membranes from cells expressing hNav1.7 and the β1 subunit (competitive binding); settings: membranes with hNav1.7 and β1 subunit; [3H]compound displacement, 18 h, room temperature; read-out: NaV1.7 395 Memb Binding (IC50)
Method: Tritiated Aryl Sulfonamide Binding to Membranes Isolated from Cells that Heterologously Express hNav1.7 and the β1 Subunit
Preparation of membranes containing recombinantly expressed sodium channels: Frozen recombinant cell pellets were thawed on ice and diluted to 4 times the cell pellet weight with ice cold 50 mM Tris HCl, pH 7.4 buffer. The cell suspensions were homogenized on ice using a motorized glass dounce homogeniser. Homogenates were further diluted 8.4 times with ice cold 50 mM Tris HCl, pH 7.4 buffer and then centrifuged at 200×g at 4° C. for 15 min. The supernatants were collected and centrifuged at 10000×g at 4° C. for 50 min. The pellets were then re-suspended in 100 mM NaCl, 20 mM Tris HCl, pH 7.4 buffer containing 1% v/v protease inhibitors (Calbiochem) and re-homogenized on ice. The homogenized membranes were then processed through a syringe equipped with a 26 gauge needle. Protein concentrations were determined by Bradford Assay and the membranes were stored at −80° C.
Radioligand Binding Studies: Saturation experiments. A representative compound of formula (I) was tritiated. Three tritiums were incorporated in place of methyl hydrogens to generate [^3H]compound. Binding of this radioligand was preformed in 5 mL borosilicate glass test tubes at room temperature. Binding was initiated by adding membranes to increasing concentrations of [^3H]compound in 100 mM NaCl, 20 mM Tris HCl, pH 7.4 buffer containing 0.01% w/v bovine serum albumin (BSA) for 18 h. Non-specific binding was determined in the presence of 1 μM unlabelled compound. After 18 h, the reactants were filtered through GF/C glass fiber filters presoaked in 0.5% w/v polyethylene imine. […] [^3H]compound bound to filters was quantified by liquid scintillation counting.
Competitive binding experiments. Binding reactions were preformed in 96-well polypropylene plates at room temperature for 18 h. In 360 μL, membranes were incubated with 100 μM [^3H]compound and increasing concentrations of Test Compound. Non-specific binding was defined in the presence of 1 μM unlabelled compound. Reactions were transferred and filtered through 96-well glass fiber/C filter plates presoaked with 0.5% polyethylene imine. The filtered reactions were washed 5 times with 200 L ice cold buffer containing 0.25% BSA. Bound radioactivity was determined by liquid scintillation counting.
Data Analysis: For saturation experiments, non-specific binding was subtracted from total binding to provide specific binding and these values were recalculated in terms of pmol ligand bound per mg protein. Saturation curves were constructed and dissociation constants were calculated using the single site ligand binding model: Beq=(Bmax*X)/(X+Kd), where Beq is the amount of ligand bound at equilibrium, Bmax is the maximum receptor density, Kd is the dissociation constant for the ligand, and X is the free ligand concentration.

T1 sequence (Q15858 whole entry, looked up): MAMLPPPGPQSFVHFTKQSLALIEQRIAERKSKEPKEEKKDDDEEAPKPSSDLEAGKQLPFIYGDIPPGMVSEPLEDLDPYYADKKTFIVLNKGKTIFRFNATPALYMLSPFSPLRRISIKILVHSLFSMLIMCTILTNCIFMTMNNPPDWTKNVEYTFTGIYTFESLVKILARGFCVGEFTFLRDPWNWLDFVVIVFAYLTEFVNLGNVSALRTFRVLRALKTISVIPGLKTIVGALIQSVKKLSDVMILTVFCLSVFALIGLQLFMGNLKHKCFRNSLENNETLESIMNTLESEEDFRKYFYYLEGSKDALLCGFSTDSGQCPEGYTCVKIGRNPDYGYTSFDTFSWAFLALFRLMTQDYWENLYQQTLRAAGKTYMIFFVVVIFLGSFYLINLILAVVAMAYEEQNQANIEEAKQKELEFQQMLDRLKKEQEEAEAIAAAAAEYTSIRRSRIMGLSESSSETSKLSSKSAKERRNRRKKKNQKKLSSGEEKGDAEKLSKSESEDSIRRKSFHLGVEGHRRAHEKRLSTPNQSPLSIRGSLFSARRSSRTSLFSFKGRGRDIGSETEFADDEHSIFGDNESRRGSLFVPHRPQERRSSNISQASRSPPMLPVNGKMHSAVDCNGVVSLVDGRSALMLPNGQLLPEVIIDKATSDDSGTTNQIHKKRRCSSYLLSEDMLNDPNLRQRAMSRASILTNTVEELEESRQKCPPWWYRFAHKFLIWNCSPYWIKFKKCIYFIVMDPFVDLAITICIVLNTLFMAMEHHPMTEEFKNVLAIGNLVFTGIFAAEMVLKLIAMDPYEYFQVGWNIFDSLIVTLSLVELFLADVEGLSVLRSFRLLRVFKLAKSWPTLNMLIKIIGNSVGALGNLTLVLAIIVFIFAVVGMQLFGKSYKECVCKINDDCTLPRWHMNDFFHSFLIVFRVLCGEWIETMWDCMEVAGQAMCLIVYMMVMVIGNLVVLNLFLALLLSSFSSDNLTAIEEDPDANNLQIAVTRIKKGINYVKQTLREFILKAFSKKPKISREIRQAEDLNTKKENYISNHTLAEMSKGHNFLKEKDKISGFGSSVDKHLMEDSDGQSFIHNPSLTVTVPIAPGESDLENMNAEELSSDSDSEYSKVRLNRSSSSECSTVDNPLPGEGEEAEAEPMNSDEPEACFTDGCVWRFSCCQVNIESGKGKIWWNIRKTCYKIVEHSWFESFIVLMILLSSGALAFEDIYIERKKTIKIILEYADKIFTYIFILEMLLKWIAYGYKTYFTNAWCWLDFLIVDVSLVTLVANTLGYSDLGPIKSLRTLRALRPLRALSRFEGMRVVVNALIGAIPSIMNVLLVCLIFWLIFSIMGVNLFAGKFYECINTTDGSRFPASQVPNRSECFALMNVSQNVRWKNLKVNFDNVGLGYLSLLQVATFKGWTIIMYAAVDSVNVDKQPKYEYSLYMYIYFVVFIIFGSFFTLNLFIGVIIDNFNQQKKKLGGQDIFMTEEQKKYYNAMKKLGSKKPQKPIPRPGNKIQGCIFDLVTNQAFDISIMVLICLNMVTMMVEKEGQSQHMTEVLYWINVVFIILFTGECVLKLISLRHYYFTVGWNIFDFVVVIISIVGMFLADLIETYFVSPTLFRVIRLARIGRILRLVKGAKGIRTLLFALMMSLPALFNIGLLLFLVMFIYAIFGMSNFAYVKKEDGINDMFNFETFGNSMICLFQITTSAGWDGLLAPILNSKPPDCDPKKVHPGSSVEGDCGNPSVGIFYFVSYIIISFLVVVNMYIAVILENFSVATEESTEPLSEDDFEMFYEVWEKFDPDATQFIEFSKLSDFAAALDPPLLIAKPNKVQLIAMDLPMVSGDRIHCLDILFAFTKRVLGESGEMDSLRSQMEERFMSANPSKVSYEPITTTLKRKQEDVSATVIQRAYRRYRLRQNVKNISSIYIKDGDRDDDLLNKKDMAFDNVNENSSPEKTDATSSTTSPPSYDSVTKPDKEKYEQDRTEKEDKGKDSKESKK
T1 sequence (Q07699 whole entry partner, looked up): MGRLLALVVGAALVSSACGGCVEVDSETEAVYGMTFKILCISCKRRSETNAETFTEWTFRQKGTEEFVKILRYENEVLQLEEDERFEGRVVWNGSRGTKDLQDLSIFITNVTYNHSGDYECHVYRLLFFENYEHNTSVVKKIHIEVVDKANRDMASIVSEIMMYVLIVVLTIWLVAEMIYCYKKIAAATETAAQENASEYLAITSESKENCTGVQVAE

| Molecule | IC50 (hNav1.7 [1]) [nM] | IC50 (hNav1.7 [2]) [nM] |
| --- | --- | --- |
| O=C(NS(=O)(=O)N1CCC1)c1cc(C2CC2)c(OCC23CC4CC(C2)C(F)(F)C(C4)C3)cc1F | 6 | 4 |
| N#CC1(COc2cc(F)c(C(=O)NS(=O)(=O)N3CCC3)cc2C2CC2)C2CC3CC(C2)CC1C3 (stereo not drawn) | 5 | 9 |
| CC1(C)CCCC(COc2cc(F)c(C(=O)NS(=O)(=O)N3CCC3)cc2C2CC2)C1 (stereo not drawn) | 8 | 4 |
| O=C(NS(=O)(=O)N1CCC1)c1cc(C2CC2)c(OCC23CC4CC(CC(CF)(C4)C2)C3)cc1F | 8 | 4 |
| COCCS(=O)(=O)NC(=O)c1cc(C2CC2)c(OCC23CCCCC2C3)cc1F (stereo not drawn) | 10 | 19 |
| O=C(NS(=O)(=O)N1CCC(O)CC1)c1cc(C2CC2)c(OCC23CC4CC(CC(C4)C2)C3)cc1F | 23 | 26 |
| O=C(NS(=O)(=O)N1CCC1)c1cc(C2CC2)c(OCC2CCC3(CC2)CC3)cc1F | 6 | 4 |
| CS(=O)(=O)NC(=O)c1ccc(OC[C@H]2CC[C@H](C(F)(F)F)CC2)cc1F | 1000 | 1500 |
| [2H]C1([2H])C([2H])([2H])C([2H])([2H])C([2H])(COc2cc(F)c(C(=O)NS(=O)(=O)N3CCC3)cc2Cl)C([2H])([2H])C1([2H])[2H] | 310 | 160 |
| [2H]C1([2H])C([2H])([2H])C([2H])([2H])C([2H])(COc2cc(F)c(C(=O)NS(=O)(=O)N3CCC3)cc2C2CC2)C([2H])([2H])C1([2H])[2H] | 100 | 11 |
| O=C(NS(=O)(=O)C1CC1)c1cc(C2CC2)c(O[C@@H]2C[C@@H]3CC[C@H]2C3)cc1F | 41 | 14 |
| O=C(NS(=O)(=O)N1CCC1)c1cc(C2CC2)c(O[C@@H]2C[C@@H]3CC[C@H]2C3)cc1F | 80 | 31 |
| CS(=O)(=O)NC(=O)c1cc(C2CC2)c(O[C@@H]2C[C@@H]3CC[C@H]2C3)cc1F | 230 | 45 |
| O=C(NS(=O)(=O)N1CCC1)c1cc(C2CC2)c(OCCC2CCC(F)(F)CC2)cc1F | 80 | 230 |
| O=C(NS(=O)(=O)N1CCC1)c1cc(C2CC2)c(O[C@H]2C[C@@H]3CC[C@H]2C3)cc1F | 32 | 70 |
| CS(=O)(=O)NC(=O)c1cc(C2CC2)c(O[C@H]2C[C@@H]3CC[C@H]2C3)cc1F | 24 | 74 |
| O=C(NS(=O)(=O)N1CCC1)c1cc(F)c(OCC23CC4CC(CC(C4)C2)C3)c(Cl)c1F | 5200 | 1300 |
| O=C(NS(=O)(=O)N1CCC1)c1cc(Cl)c(OCC2CCC3(CCC3)CC2)cc1F | 77 | 25 |
| CO[C@H]1CCN(S(=O)(=O)NC(=O)c2cc(C3CC3)c(OCC34CC5CC(CC(C5)C3)C4)cc2F)C1 | 300 | 29 |
| O=C(NS(=O)(=O)N1CCC1)c1cc(Cl)c(OCC23CC4CC(CC(C4)C2)C3)c(F)c1F | 2300 | 370 |
| CS(=O)(=O)NC(=O)c1cc(Cl)c(OCC23CC4CC(CC(C4)C2)C3)c(F)c1F | 1500 | 190 |
| O=C(NS(=O)(=O)N1CCC1)c1cc(C2CC2)c(O[C@H]2C3CC4CC2C[C@](F)(C4)C3)cc1F | 100 | 20 |
| O=C(NS(=O)(=O)C1CC1)c1cc(C2CC2)c(O[C@H]2C3CC4CC2C[C@](F)(C4)C3)cc1F | 43 | 11 |
| 4-(adamantan-1-ylmethoxy)-3-chloro-N-(methylsulfonyl)benzamide [Example 12] | 6.9 | – |
| CN(C)S(=O)(=O)NC(=O)c1cc(Cl)c(OCC23CC4CC(CC(F)(C4)C2)C3)cc1F [Example 89, 5-chloro-N-(dimethylsulfamoyl)-2-fluoro-4-[(3-fluoro-1-adamantyl)methoxy]benzamide] | – | 234 |
| CN(C)S(=O)(=O)NC(=O)c1cc(Cl)c(OCC2CCCCCC2)cc1F [Example 100] | – | 299 |

| Molecule | IC50 (hNav1.7 [1]) [nM] | IC50 (hNav1.7 [2]) [nM] |
| --- | --- | --- |
| CS(=O)(=O)NC(=O)c1cc(Cl)c(OC2CCC(C(F)(F)F)CC2)cc1F (stereo not drawn) [Example 128] | – | 291 |
| CS(=O)(=O)NC(=O)c1cc(Cl)c(OC2CCC3(CCCC3)CC2)cc1F [Example 133] | – | 125 |
| CN(C)S(=O)(=O)NC(=O)c1cc(Cl)c(OC2CCC(C(F)(F)F)CC2)cc1F (stereo not drawn) [Example 138] | – | 1120 |
| CN(C)S(=O)(=O)NC(=O)c1cc(Cl)c(OCCC2CCC2)cc1F [Example 140] | – | 885 |
| CS(=O)(=O)NC(=O)c1cc(Cl)c(OCC2(F)C3CC4CC(C3)CC2C4)cc1F (stereo not drawn) [Example 176] | – | 50 |
| CNS(=O)(=O)NC(=O)c1cnc(OCC23CC4CC(CC(C4)C2)C3)c(C2CC2)c1 [Example 178] | – | 250 |
| CS(=O)(=O)NC(=O)c1ccc(C2C3CC4CC(C3)CC2C4)c(Cl)c1 (stereo not drawn) [Example 180] | – | 1200 |
| O=C(NS(=O)(=O)N1CC(F)C1)c1cc(C2CC2)c(OCC2CCCCC2)cc1F [Example 210] | – | 8 |
| O=C(NS(=O)(=O)C1CCC1)c1cc(C2CC2)c(OCC23CC4CC(CC(C4)C2)C3)cc1F [Example 211] | – | 2 |
| CC(O)CS(=O)(=O)NC(=O)c1ccc(OCC23CC4CC(CC(C4)C2)C3)cc1F (stereo not drawn) [Example 215] | – | 990 |
| O=C(NS(=O)(=O)N1CCC1)c1cc(I)c(OCC23CC4CC(CC(C4)C2)C3)cc1F [Example 222] | – | 9 |
| O=C(NS(=O)(=O)N1CC(F)C1)c1cc(C2CC2)c(OCC2CCC(F)(F)CC2)cc1F [Example 226] | – | 30 |
| O=C(NS(=O)(=O)N1CC2(COC2)C1)c1cc(C2CC2)c(OCC23CC4CC(CC(C4)C2)C3)cc1F [Example 237] | – | 67 |
| O=C(NS(=O)(=O)C1CC1)c1cc(C2CC2)c(OCC2CCCC2)cc1F [Example 242] | – | 20 |
| O=C(NS(=O)(=O)C1CC1)c1cc(Cl)c(OCC2CC3CC3C2)cc1F (stereo not drawn) [Example 266] | – | 49 |
| O=C(NS(=O)(=O)C1CC1)c1cc(Cl)c(OCC2CC3C(C2)C3(F)F)cc1F (stereo not drawn) [Example 322] | – | 81 |
| C/C=C/c1cc(C(=O)NS(=O)(=O)N2CCC2)c(F)cc1OCC12CC3CC(CC(C3)C1)C2 [Example 399] | – | 6 |
| O=C(NS(=O)(=O)C1CC1)c1cc(C2CC2)c(OCC23CCCCC2C3(F)F)cc1F (stereo not drawn) [Example 433, 5-cyclopropyl-N-cyclopropylsulfonyl-4-[(7,7-difluoronorcaran-1-yl)methoxy]-2-fluoro-benzamide] | – | 4 |
| O=C(NS(=O)(=O)N1CCC1)c1cc(C2CC2)c(OCC23CCCCC2C3(F)F)cc1F (stereo not drawn) [Example 434] | – | 11 |
| O=C(NS(=O)(=O)C1CC1)c1cc(C2CC2)c(OC[C@H]2CC[C@H](C(F)(F)F)CC2)cc1F [Example 435, 5-cyclopropyl-N-(cyclopropylsulfonyl)-2-fluoro-4-(((1r,4r)-4-(trifluoromethyl)cyclohexyl)methoxy)benzamide] | – | 3 |
| O=C(NS(=O)(=O)N1CCC1)c1cc(C2CC2)c(OC[C@H]2CC[C@H](C(F)(F)F)CC2)cc1F [Example 436, N-(azetidin-1-ylsulfonyl)-5-cyclopropyl-2-fluoro-4-(((1r,4r)-4-(trifluoromethyl)cyclohexyl)methoxy)benzamide] | – | 9 |
| CS(=O)(=O)NC(=O)c1cc(C2CC2)c(OC2CN(C(c3ccccc3)c3ccccc3)C2)cc1F [Example 439, 4-(1-benzhydrylazetidin-3-yloxy)-5-cyclopropyl-2-fluoro-N-(methylsulfonyl)benzamide] | – | 28 |
| CCS(=O)(=O)NC(=O)c1cc(C2CC2)c(OCC2CN(C(c3ccccc3)c3ccccc3)C2)cc1F [Example 441, 4-((1-benzhydrylazetidin-3-yl)methoxy)-5-cyclopropyl-N-(ethylsulfonyl)-2-fluorobenzamide] | – | 10 |
| CC1(COc2cc(F)c(C(=O)NS(=O)(=O)N3CC(F)C3)cc2C2CC2)CCCCC1 [Example 447, 5-cyclopropyl-2-fluoro-N-((3-fluoroazetidin-1-yl)sulfonyl)-4-((1-methylcyclohexyl)methoxy)benzamide] | – | 4.2 |
| O=C(NS(=O)(=O)N1CCC1)c1cc(C2CC2)c(OCC2CC3CC3C2)cc1F (stereo not drawn) [Example 454] | – | 18 |
| trans-5-cyclopropyl-N-(cyclopropylsulfonyl)-2-fluoro-4-((4-(trifluoromethyl)-cyclohexyl)methoxy)benzamide [Example 259] | – | 20 |
